± gives the standard deviation of the averaged measurements.
Test system: RD-ES
Test: relative viability vs DMSO control (72 h) (fraction); higher = more viable cells
In short: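 After seeding at densities set for 80–90% confluence in 384-well plates, sarcoma cell lines waited 24 h before 2.5 µl of serially diluted compound was added. Source plates held 10 mM down to 0.0002 mM. Plates were incubated 72 h at 37 °C with 5% CO2, with 0.1% DMSO vehicle and a 5 µM positive control, and relative viability was taken from ATPLite as percent growth averaged over up to triplicate wells, with 1 set as full and 0 as none.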

| SMILES | relative viability (0.00017 µM) | relative viability (0.00051 µM) | relative viability (0.00152 µM) | relative viability (0.00457 µM) | relative viability (0.01372 µM) | relative viability (0.04115 µM) | relative viability (0.1235 µM) | relative viability (0.3704 µM) | relative viability (1.111 µM) | relative viability (3.333 µM) | relative viability (10 µM) |
| --- | --- | --- | --- | --- | --- | --- | --- | --- | --- | --- | --- |
| O=C(Nc1cnn2ccc(N3CCC[C@@H]3c3cc(F)ccc3F)nc12)N1CC[C@H](O)C1 [Larotrectinib] | 0.95 ± 0.031 | 0.963 ± 0.01 | 0.978 ± 0.05 | 0.961 ± 0.024 | 0.9532 ± 0.0046 | 0.976 ± 0.016 | 0.961 ± 0.013 | 0.964 ± 0.014 | 0.968 ± 0.022 | 0.931 ± 0.052 | 0.932 ± 0.042 |
| COCc1c(-c2cc3cc(C)cc(OC)c3s2)c2c(N)ncnn2c1CN1CCNC(=O)C1 [Rogaratinib] | 1.04 ± 0.027 | 0.997 ± 0.028 | 1.03 ± 0.012 | 1.02 ± 0.032 | 1.03 ± 0.013 | 1 ± 0.036 | 0.971 ± 0.043 | 0.958 ± 0.013 | 0.91 ± 0.029 | 0.774 ± 0.014 | 0.455 ± 0.0058 |
| Cn1cnc2c(F)c(Nc3ccc(Br)cc3F)c(C(=O)NOCCO)cc21 [Binimetinib] | 0.9413 ± 0.0039 | 0.9487 ± 0.0073 | 0.976 ± 0.024 | 0.969 ± 0.026 | 0.942 ± 0.025 | 0.938 ± 0.053 | 0.962 ± 0.043 | 0.919 ± 0.061 | 0.883 ± 0.026 | 0.925 ± 0.034 | 0.879 ± 0.042 |
| Cn1cc(-c2cc3c(N4CCN(c5ncc([C@@](C)(N)c6ccc(F)cc6)cn5)CC4)ncnn3c2)cn1 [Avapritinib] | 0.927 ± 0.028 | 0.928 ± 0.034 | 0.934 ± 0.015 | 0.922 ± 0.026 | 0.936 ± 0.02 | 0.932 ± 0.013 | 0.9089 ± 0.0059 | 0.884 ± 0.025 | 0.84 ± 0.044 | 0.787 ± 0.047 | 0.716 ± 0.012 |
| C[C@]1(O)C[C@@H](c2nc(-c3ccc4ccc(-c5ccccc5)nc4c3)c3c(N)nccn32)C1 [Linsitinib] | 0.986 ± 0.02 | 0.992 ± 0.034 | 0.982 ± 0.017 | 0.967 ± 0.015 | 0.928 ± 0.014 | 0.8432 ± 0.005 | 0.661 ± 0.017 | 0.451 ± 0.028 | 0.382 ± 0.016 | 0.354 ± 0.018 | 0.309 ± 0.0052 |
| Cc1cc(Nc2ncnc3ccc(NC4=NC(C)(C)CO4)cc23)ccc1Oc1ccn2ncnc2c1 [Tucatinib] | 0.989 ± 0.03 | 0.999 ± 0.035 | 1 ± 0.027 | 1 ± 0.035 | 0.95 ± 0.055 | 0.996 ± 0.027 | 0.991 ± 0.014 | 0.974 ± 0.02 | 0.985 ± 0.037 | 0.983 ± 0.031 | 0.9422 ± 0.0042 |
| Nc1cc(C(F)(F)F)c(-c2cc(N3CCOCC3)nc(N3CCOCC3)n2)cn1 [Buparlisib] | 0.97 ± 0.037 | 0.956 ± 0.025 | 0.946 ± 0.026 | 0.949 ± 0.021 | 0.935 ± 0.013 | 0.922 ± 0.01 | 0.864 ± 0.0088 | 0.717 ± 0.021 | 0.341 ± 0.0073 | 0.102 ± 0.0037 | 0.0722 ± 0.0025 |
| C[C@@H]1CCN(C(=O)CC#N)C[C@@H]1N(C)c1ncnc2[nH]ccc12 [Tofacitinib] | 0.942 ± 0.038 | 0.962 ± 0.035 | 0.952 ± 0.053 | 0.966 ± 0.045 | 0.961 ± 0.024 | 0.962 ± 0.06 | 0.949 ± 0.047 | 0.965 ± 0.034 | 0.955 ± 0.045 | 0.988 ± 0.051 | 1.02 ± 0.044 |
| COc1cc2/c(=N/c3ccc(Br)cc3F)nc[nH]c2cc1OCC1CCN(C)CC1 [Vandetanib] | 0.944 ± 0.034 | 0.949 ± 0.031 | 0.957 ± 0.01 | 0.939 ± 0.047 | 0.927 ± 0.025 | 0.94 ± 0.041 | 0.944 ± 0.053 | 0.922 ± 0.056 | 0.804 ± 0.054 | 0.648 ± 0.029 | 0.0224 ± 0.01 |
